Measured values taken from PubChem BioAssay AID2768 (The Scripps Research Institute Molecular Screening Center, 2010).

Target: metallo-beta-lactamase IMP-1 (Pseudomonas aeruginosa) (UniProt Q79MP6)
Assay: inhibition of IMP-1 substrate hydrolysis – biochemical, epi-absorbance, dose response, late-stage follow-up (AID 2768)
Settings: purified IMP-1, absorbance substrate hydrolysis

Sequence of metallo-beta-lactamase IMP-1 (Pseudomonas aeruginosa) (Q79MP6 1-246): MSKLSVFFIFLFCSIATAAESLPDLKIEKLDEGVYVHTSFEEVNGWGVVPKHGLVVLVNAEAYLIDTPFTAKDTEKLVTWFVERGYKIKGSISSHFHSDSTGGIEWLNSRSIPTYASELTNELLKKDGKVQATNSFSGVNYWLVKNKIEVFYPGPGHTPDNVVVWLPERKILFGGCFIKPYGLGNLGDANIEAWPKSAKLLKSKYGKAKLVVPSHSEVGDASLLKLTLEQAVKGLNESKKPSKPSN

| Compound | IC50 |
| --- | --- |
| COc1cccc[c]1[Hg+] | 2330 nM |
| O=C(O)c1cc[c]([Hg][Cl])cc1 | 8700 nM |
| Cc1cc[c]([Hg+])cc1 | 1810 nM |
| CC(=O)Nc1cc[c]([Hg+])cc1 | 3740 nM |
| O=C(O)c1ccc[c]([Hg+])c1 | 1330 nM |
| [Hg+][c]1ccccc1 | 1510 nM |
